Assay results taken from US9233067B2, “Silk particles for controlled and sustained delivery of compounds” (Amsilk GmbH, priority 2009, dated 2016).
Entries after “also recorded” stand apart in the source; their conditions may differ. Structures can show the parent of a compound that is named as a salt.

Columns and labels:
[1] = Properties of small molecular weight model drugs (Table 1); format: physicochemical; settings: for Predominant charge at pH7: pH 7, aqueous media
Method: All drugs were dissolved in water at a concentration of 0.21 μmol/ml. Drug substances and their featured properties are depicted in Table 1. The main selection criteria were solubility in aqueous media (expressed by the octanol/water partition coefficient (log P)), the acidic dissociation constant (pKa for protonated bases (BH+) or for acids (HA)) and the resulting net-charge in aqueous media (predominant or permanent charge).

[2] = cited from earlier work; for log P: octanol/water, individual unprotonated forms; for Dissociation constant of BH^+(pKa): protonated base
[3] = Calculated apparent distribution coefficient (log D); settings: pH 7; calculated from log P and pKa
Excerpt: Further, the distribution between a hydrophobic and a hydrophilic phase of two different species of a specific drug, i.e. the native and the protonated form, can be described by its apparent distribution coefficient (log D), which can be calculated with equations (3) and (4) respectively. for acids: log D=log P−log(1+10^pH-pKa) (3) for bases: log D=log P−log(1+10^pKa-pH) (4)

[4] = pH of 7.0; cited from earlier work
[5] = In vitro release from drug loaded eADF4(C16) particles; format: physicochemical; settings: power law fit
Method: Drug loaded eADF4(C16) particles were washed with distilled water and suspended in 1 ml PBS (pH 7.4) before incubation at 37° C. with constant shaking. Each vial contained 2 mg of drug loaded particles containing […] spider silk protein. The solvent was periodically removed from each sample and replaced with fresh PBS (pH 7.4). The drug content in the medium was then analyzed using UV-Vis-spectrometry. The percentage of cumulative model drug release (% w/w) was investigated as a function of incubation time. Each experiment was performed in triplicate. To study the effect of different pH values on the release behaviour of drug loaded eADF4(C16) particles, 1 mg drug loaded silk particles were incubated in 1.0 ml PBS at 5 different pH values (pH 2, 4, 6, 7.4 and 8.8) for 5 days. The solvent was withdrawn daily and the particles were redispersed in fresh media. Supernatants of drawn samples were analyzed for drug content determination with UV-Vis-spectrometry.
[formula] where Mt/M∞ is the fractional amount of the drug released at time t, k is a characteristic constant of the system, and exponent n is related to the geometrical shape of the formulation and is indicative of the mechanism of drug release. The semi-empirical power law can be seen as a generalization of two independent mechanisms of drug transport, Fickian diffusion and Case II transport, reflecting the influence of polymer relaxation on molecules' movement in the matrix. For spherical systems the limiting value of n, when pure Fickian diffusion or pure Case II transport is operating, were determined to be equal to 0.43 and 0.85, respectively. When n is between 0.43 and 0.85, a superposition of both transport processes occurs which is known as anomalous transport. In order to obtain a linear fit for the drug release data, equation (5) was modified leading to equation (6),
[formula] where n can be calculated from the slope of the log-log plot of release Mt/M∞ versus time t by linear fitting (FIG. 4d). Therefrom, three time intervals with different dominating release mechanisms could be identified excluding the initial burst region (<24 h). To distinguish between different time intervals, the criterion that the coefficient r2 had to be above 0.99 for the individual linear fits was employed. For validation of the determined release parameters, the experimental release data were compared with theoretical data obtained by the semi-empirical power law employing the determined values for k and n. A very good agreement from post-initial burst stage (>24 hours) up to 100% release was obtained (FIG. 4 a). Since only release data after 24 hours were considered for calculation of release parameters (k and n), the initial burst is underestimated by theoretical data (FIG. 4 b).

Zeta potential analysis = format: physicochemical; settings: lysozyme loading up to 30%; pH 7.0/30 mM
Method: In order to elucidate and characterize the loading mechanism of eADF4(C16) particles with model drugs, zeta potential measurements were conducted as a function of amount of model drug added. The zeta potential was determined using a Nanoseries Malvern Zetasizer (Malvern, Worcestershire, UK). Automatic titration was conducted with a Malvern Multipurpose Titrator MPT-2. Experiments were performed in distilled water (pH 7) at 25° C. Each measurement was performed in triplicate.

[6] = Particle size of lysozyme loaded C16 spider silk particles (dynamic light scattering); format: physicochemical; settings: particles loaded with approximately 10% [w/w] lysozyme
Method: The loading procedure as applied in example 6 was modulated and implemented as follows: A stock dispersion of spider silk particles was centrifuged and redispersed in the desired buffer media before loading. A second stock solution comprising lysozyme was prepared by dissolving lyophilized lysozyme in an identical buffer solution. […] After 30 minutes of incubation at room temperature under gentle agitation, 20 μl of the resulting particle suspension were used for dynamic light scattering measurements. Simultaneously, samples were centrifuged and the supernatant was analyzed for residual protein content using the Micro BCA Protein Assay Kit (Thermo Scientific). Encapsulation efficiencies and loading were determined according to example 6 by using equation (1) and (2), respectively.

Row | Compound | Permanently charged [1] | Predominant charge at pH7 [1] | log P [2] | Dissociation constant of BH^+(pKa) [2] | log D [3] | also measured
1 | CC(C)NCC(O)COc1cccc2ccccc12 (stereo not drawn) [Propranolol*HCl, Propranolol] | no | positive | – | – | – | –
2 | COc1ccc(Cc2nccc3cc(OC)c(OC)cc23)cc1OC [Papaverine*HCl, Papaverine] | no | positive | 3.50 | 8.07 | 2.395 | –
3 | CCN(CC)CCOC(=O)c1ccc(N)cc1 [Procaine*HCl, Procaine] | no | positive | 2.40 | 8.05 | 0.396 | –
4 | CN[C@@H](C)[C@H](O)c1ccccc1 [Ephedrine*HCl, Ephedrine] | no | positive | 1.30 | – | −1.321 | –
5 | CCCCNc1ccc(C(=O)OCCN(C)C)cc1 [Tetracaine*HCl, Tetracaine] | no | positive | 4.00 | – | 2.773 | –
6 | Nerve growth factor: protein with an isoelectric point of 9.5 and a molecular weight of 13 kDa | – | – | – | – | – | net charge [4]: positively charged
7 | Methyl violet | yes | positive | 3.20 | – | – | k (characteristic constant) ([5]; time 0-13 d): 1.17; n (release exponent) ([5]; time 0-13 d): 0.692; k (characteristic constant) ([5]; time 14-20 d): 1.92; n (release exponent) ([5]; time 14-20 d): 0.6079; n (release exponent) ([5]; time 14-20 d, listed as methyl violet): 0.61; k (characteristic constant) ([5]; time >20 d): 9.20; n (release exponent) ([5]; time >20 d): 0.3537
8 | CCOc1ccc2nc3cc(N)ccc3c(N)c2c1 [Ethacridine lactate] | no | positive | 2.50 | 11.00 | 2.899 | k (characteristic constant) ([5]; time 0-13 d): 1.25; n (release exponent) ([5]; time 0-13 d): 00.6754; n (release exponent) ([5]; time 0-13 d, listed as ethacridine lactate): 0.6754; k (characteristic constant) ([5]; time 14-20 d): 3.18; n (release exponent) ([5]; time 14-20 d): 0.5083; n (release exponent) ([5]; time 14-20 d, listed as ethacridine lactate): 0.51; k (characteristic constant) ([5]; time >20 d): 14.4; n (release exponent) ([5]; time >20 d): 0.2641
9 | Lysozyme: protein compound with an isoelectric point of 11.35 and a molecular weight of 14.3 kDa | – | – | – | – | – | net charge [4]: positive; change in the zeta-potential of particles (Zeta potential analysis): did not show a significant change; particle size compared to unloaded spider silk particles [6]: no increase in size; also recorded: did not differ
10 | O=S1(=O)OC(c2ccc(O)cc2)(c2ccc(O)cc2)c2ccccc21 [Phenol red] | – | – | 3.00 | – | – | –
